Data on 19 compounds can be found in patent US20210007356A1, “IMIDE DERIVATIVE AND FUNGICIDE CONTAINING SAID DERIVATIVE AS ACTIVE INGREDIENT” (HOKKO CHEMICAL INDUSTRY CO., LTD., priority 2018, published 2021).

Test [1] deals with rice blast fungus (Pyricularia grisea). The format is in vivo. Conditions: flowable diluted to 100 ppm, 10 mL per pot foliage spray on paddy rice; inoculated day after; 7 days after inoculation.
The test system of test [2] is rice sheath blight fungus (Thanatephorus cucumeris). Description: Test Example 10: control effect against rice sheath blight by water surface application (flowable formulation). The following applies: flowable 1,000 ppm, 1 mL dripped in paddy water, inoculated after 1 week, 7 days after inoculation.
Experimental: (§1) Control value (%)=[1−(lesion height in sprayed plot/lesion height in unsprayed plot)]×100 (d)
By dripping treatment in paddy water, 1 mL of a diluted solution (1,000 ppm) of a flowable prepared according to Formulation Example-3 was applied to a 5-leaf-stage paddy rice (variety: Asahi) seedling (5 seedlings/stub, one stub/pot) grown in a pot ( 1/10000 are in size) filled with paddy soil (flooded) within a greenhouse. After growing for 1 week within a greenhouse, a culture of rice sheath blight fungus (Thanatephorus cucumeris) grown in advance on a rice straw medium was inoculated into the root of the formulation-treated paddy rice, and disease development was promoted in an artificial weather chamber at 26° C. (relative humidity=100%). Seven days after the inoculation, the rice sheath blight lesion height (height from the root) was examined, and the control value (%) was calculated according to formula (d). […] This test was performed with three replications, each consisting of one plot and one pot, per one formulation plot, and its average evaluation value of control effect was determined.
Test [3] has as its system rice blast fungus (Pyricularia grisea). Format: in vivo. The following applies: flowable 1,000 ppm, 1 mL dripped in paddy water, inoculated after 1 week, 7 days after inoculation.
The test system of test [4] is rice sheath blight fungus (Thanatephorus cucumeris). Briefly: Test Example 6: control effect against rice sheath blight by box treatment (flowable formulation). The following applies: flowable 5,000 ppm, 50 mL irrigation of nursery box, paddy rice; inoculated after 3 weeks; 7 days after inoculation.
Experimental: as §1
By irrigation, 50 mL of a diluted solution (5,000 ppm) of a flowable prepared according to Formulation Example-3 was applied to a 2.5-leaf-stage paddy rice (variety: Asahi) seedling raised using a nursery box ( 1/10 the area of standard nursery box in size: 12 cm×15 cm×height 4 cm) within a greenhouse. The formulation-treated paddy rice seedling was immediately transplanted at 5 seedlings/pot into a pot ( 1/10000 are in size) filled with paddy soil (flooded). After growing for 3 weeks within a greenhouse, a culture of rice sheath blight fungus (Thanatephorus cucumeris) grown in advance on a rice straw medium was inoculated into the root of the formulation-treated paddy rice, and disease development was promoted in an artificial weather chamber at 26° C. (relative humidity=100%). Seven days after the inoculation, the rice sheath blight lesion height (height from the root) was examined, and the control value (%) was calculated according to formula (d). […] This test was performed with three replications, each consisting of one plot and one pot, per one formulation plot, and its average evaluation value of control effect was determined.
Test [5] concerns rice blast fungus (Pyricularia grisea). The format is in vivo. Conditions: flowable 5,000 ppm, 50 mL irrigation of nursery box, paddy rice; inoculated after 3 weeks; 7 days after inoculation.
In test [6] the test system is barley powdery mildew fungus (Erysiphe graminis). Briefly: Test Example 2: control effect against barley powdery mildew by foliage application. Format: in vivo. The following applies: wettable powder diluted to 100 ppm, 10 mL per pot foliage spray on barley; inoculated day after; 7 days after inoculation.
The test system of test [7] is rice blast fungus (Pyricularia grisea). The format is in vivo. The following applies: 5 g of granule on nursery box, paddy rice; inoculated after 3 weeks; 7 days after inoculation.
In test [8] the test system is rice sheath blight fungus (Thanatephorus cucumeris). Description: Test Example 8: control effect against rice sheath blight by box treatment (granule). The following applies: 5 g of granule on nursery box, paddy rice; inoculated after 3 weeks; 7 days after inoculation.

Read-outs that look alike come from different tables or passages of the source.

Take `Cc1nc(C(F)(F)F)c(C(=O)N(C(=O)c2c(C)nn(C)c2Cl)c2cccc3c2C(C)OC3(C)C)s1` (stereo not shown) [25-122]: the “evaluation value of control effect (from control value, number of lesions)” value in test [1] amounted to 4.

Take `Cc1nn(C)c(Cl)c1C(=O)N(C(=O)c1scnc1C(F)(F)F)c1cccc2c1C(C)OC2(C)C` (stereo not shown) [25-120]: the “evaluation value of control effect (from control value, number of lesions)” value in test [1] came out at 4.

As for `Cc1nn(C)c(Cl)c1C(=O)N(C(=O)c1scnc1C(F)F)c1cccc2c1C(C)OC2(C)C` (stereo not shown) [25-119], the “evaluation value of control effect (from control value, number of lesions)” value in test [1] was determined as 4.

In the case of `Cc1nnsc1C(=O)N(C(=O)c1cccnc1C(F)F)c1cccc2c1C(C)OC2(C)C` (stereo not shown) [27-16], the “evaluation value of control effect (from control value, lesion height)” value in test [2], in test [4] and in test [8] was 5 throughout. Besides, the “evaluation value of control effect (from control value, number of lesions)” value in test [3], in test [5] and in test [7] was 5 throughout. Besides, in test [6], the “evaluation value of control effect (from control value, lesion area percentage)” value is 4.

Regarding `Cn1cc(C(=O)N(C(=O)c2scnc2C(F)(F)F)c2ccccc2-c2cc(F)c(F)c(F)c2)c(C(F)F)n1` [1-371], the “evaluation value of control effect (from control value, number of lesions)” value in test [1] is recorded as 4.

`Cc1nc(C(F)F)c(C(=O)N(C(=O)c2snnc2C(F)F)c2cccc3c2C(C)CC3(C)C)s1` (stereo not shown) [26-57]: the “evaluation value of control effect (from control value, lesion height)” value in test [2], in test [4] and in test [8] was 5 in each case. Moreover, the “evaluation value of control effect (from control value, number of lesions)” value in test [3], in test [5] and in test [7] was 5 throughout. Further, in test [6], the “evaluation value of control effect (from control value, lesion area percentage)” value is reported as 4.

`Cc1nc(C(F)F)c(C(=O)N(C(=O)c2onc(Cl)c2Cl)c2ccccc2C(C)CC(C)C)s1` (stereo not shown) [7-277]: the “evaluation value of control effect (from control value, lesion height)” value in test [2], in test [4] and in test [8] was 5 in each case. Also, the “evaluation value of control effect (from control value, number of lesions)” value in test [3], in test [5] and in test [7] was 5 in each case. In addition, in test [6], the “evaluation value of control effect (from control value, lesion area percentage)” value was 5.

With `Cc1cc(C(=O)N(C(=O)c2cn(C)nc2C(F)F)c2ccccc2C(C)CC(C)C)sn1` (stereo not shown) [1-136], the “evaluation value of control effect (from control value, lesion height)” value in test [2], in test [4] and in test [8] was 5 each time. The “evaluation value of control effect (from control value, number of lesions)” value in test [3], in test [5] and in test [7] was 5 in each case. Further, in test [6], the “evaluation value of control effect (from control value, lesion area percentage)” value was found to be 4.

For `Cc1nc(C(F)F)c(C(=O)N(C(=O)c2cc(F)nc(F)c2)c2ccccc2C(C)CC(C)C)s1` (stereo not shown) [7-288], the “evaluation value of control effect (from control value, lesion height)” value in test [2], in test [4] and in test [8] was 5 each time. For the same compound, the “evaluation value of control effect (from control value, number of lesions)” value in test [3], in test [5] and in test [7] was 5 throughout. Besides, the “evaluation value of control effect (from control value, lesion area percentage)” value in test [6] is 4.

As for `Cc1nc(C(F)F)c(C(=O)N(C(=O)c2snnc2C)c2ccccc2CCC(C)C)s1` [7-151], the “evaluation value of control effect (from control value, lesion height)” value in test [2], in test [4] and in test [8] was 5 in each case. In addition, the “evaluation value of control effect (from control value, number of lesions)” value in test [3], in test [5] and in test [7] was 5 in each case. In addition, in test [6], the “evaluation value of control effect (from control value, lesion area percentage)” value stood at 4.

Turning to `CC(C)CC(C)c1ccccc1N(C(=O)c1cn(C)nc1C(F)F)C(=O)c1scnc1C(F)(F)F` (stereo not shown) [1-333], the “evaluation value of control effect (from control value, lesion height)” value in test [2], in test [4] and in test [8] was 5 each time. Also, the “evaluation value of control effect (from control value, number of lesions)” value in test [3], in test [5] and in test [7] was 5 each time. For the same compound, the “evaluation value of control effect (from control value, lesion area percentage)” value in test [6] stood at 4.

For the compound `CC(C)CC(C)c1ccccc1N(C(=O)c1cccnc1C(F)F)C(=O)c1cccc2nnsc12` (stereo not shown) [13-16], the “evaluation value of control effect (from control value, lesion height)” value in test [2], in test [4] and in test [8] was 5 in each case. For the same compound, the “evaluation value of control effect (from control value, number of lesions)” value in test [3], in test [5] and in test [7] was 5 each time. Moreover, the “evaluation value of control effect (from control value, lesion area percentage)” value in test [6] was 4.

In the case of `Cc1nc(C(F)F)c(C(=O)N(C(=O)c2snnc2C)c2ccccc2C(C)CC(C)C)s1` (stereo not shown) [7-152], the “evaluation value of control effect (from control value, lesion height)” value in test [2], in test [4] and in test [8] was 5 each time. Further, the “evaluation value of control effect (from control value, number of lesions)” value in test [3], in test [5] and in test [7] was 5 throughout. Also, the “evaluation value of control effect (from control value, lesion area percentage)” value in test [6] is reported as 5.

With `CC1OC(C)(C)c2cccc(N(C(=O)c3cn(C)nc3C(F)F)C(=O)c3cccc4nnsc34)c21` (stereo not shown) [25-74], the “evaluation value of control effect (from control value, lesion height)” value in test [2], in test [4] and in test [8] was 5 in each case. For the same compound, the “evaluation value of control effect (from control value, number of lesions)” value in test [3], in test [5] and in test [7] was 5 throughout. The “evaluation value of control effect (from control value, lesion area percentage)” value in test [6] is on record as 4.

Take `Cc1nn(C)c(F)c1C(=O)N(C(=O)c1snnc1C(F)F)c1ccccc1C(C)CC(C)C` (stereo not shown) [1-258]: the “evaluation value of control effect (from control value, lesion height)” value in test [2], in test [4] and in test [8] was 5 each time. Also, the “evaluation value of control effect (from control value, number of lesions)” value in test [3], in test [5] and in test [7] was 5 each time. The “evaluation value of control effect (from control value, lesion area percentage)” value in test [6] was 4.

Regarding `Cc1nnsc1C(=O)N(C(=O)c1cccnc1C(F)F)c1ccccc1C(C)CC(C)C` (stereo not shown) [13-10], the “evaluation value of control effect (from control value, lesion height)” value in test [2], in test [4] and in test [8] was 5 throughout. Besides, the “evaluation value of control effect (from control value, number of lesions)” value in test [3], in test [5] and in test [7] was 5 in each case. Besides, in test [6], the “evaluation value of control effect (from control value, lesion area percentage)” value is recorded as 5.

For `Cc1nc(C(F)F)c(C(=O)N(C(=O)c2cccnc2C(F)F)c2ccccc2C(C)CC(C)C)s1` (stereo not shown) [7-270], the “evaluation value of control effect (from control value, lesion height)” value in test [2], in test [4] and in test [8] was 5 each time. Further, the “evaluation value of control effect (from control value, number of lesions)” value in test [3], in test [5] and in test [7] was 5 throughout. The “evaluation value of control effect (from control value, lesion area percentage)” value in test [6] is 4.

Take `CC1OC(C)(C)c2cccc(N(C(=O)c3cccnc3C(F)F)C(=O)c3snc(Cl)c3Cl)c21` (stereo not shown) [27-4]: the “evaluation value of control effect (from control value, lesion height)” value in test [2], in test [4] and in test [8] was 5 throughout. Further, the “evaluation value of control effect (from control value, number of lesions)” value in test [3], in test [5] and in test [7] was 5 each time. Also, in test [6], the “evaluation value of control effect (from control value, lesion area percentage)” value is 4.

For the compound `Cc1nc(C(F)F)c(C(=O)N(C(=O)c2scnc2C(F)(F)F)c2ccccc2C(C)CC(C)C)s1` (stereo not shown) [7-250], the “evaluation value of control effect (from control value, lesion height)” value in test [2], in test [4] and in test [8] was 5 throughout. For the same compound, the “evaluation value of control effect (from control value, number of lesions)” value in test [3], in test [5] and in test [7] was 5 in each case. In addition, the “evaluation value of control effect (from control value, lesion area percentage)” value in test [6] was 4.
